Assay results taken from US12186405B2, “Cleavable tetrazine used in bio-orthogonal drug activation” (TAGWORKS PHARMACEUTICALS B.V., priority 2016, dated 2025).

Columns and labels:
[1] = Reactivity (second order rate constant k2) between TZ Triggers and TCO Activator 4.9 in MeCN at 20° C.; format: physicochemical
Procedure: The second order rate constant of the reaction (k2) between a TZ and TCO 4.9 was determined under pseudo first order conditions in MeCN at 20° C. using UV spectroscopic monitoring. […] From the decrease of this absorption, the half-life of the pseudo first order reaction between TZ and TCO was determined. The second order rate constant k2 was obtained by calculation from this half-life and the concentration of TCO

[2] = Rate of release of Constructs from IEDDA adducts formed by activation of TZ Trigger with TCO Activator 4.9; format: physicochemical
Procedure: Then, 10 μL of a 50 mM TCO 4.9 stock solution in DMSO (5.0×10^−7 mol TCO) was added. After the complete disappearance of the pink color (this takes typically between 5 and 30 min, and is due to the IEDDA reaction between TZ and TCO thereby forming IEDDA adducts), the sample was diluted with PBS to a total volume of 1 mL (t=0). […] At selected time points, this solution was analyzed by HPLC-PDA/MS. The decrease of the IEDDA adduct absorption(s) and/or the rise of the leaving group absorption indicated the conversion of the release reaction. […] Alternatively, the rate of the release reaction can be indicated by the conversion (in %) after a certain reaction time (in hours).

[3] = Stability of tetrazine (TZ) Triggers in a MeCN/PBS mixture
Procedure: (§1) 10 μL of a 25 mM TZ stock solution in DMSO (2.5×10^−7 mol TZ) was diluted with MeCN and PBS to a total volume of 1 mL. The aqueous solution was incubated at 20° C. or at 37° C. At selected time points, the TZ solution was analyzed by HPLC-PDA/MS.

[4] = Rate of release of Constructs from IEDDA adducts formed by activation of TZ Trigger with TCO Activator 4.9; format: physicochemical; settings: Method F: MeCN at 37° C.; 23 h
[5] = Stability of TZ Triggers in 50% mouse serum/PBS; format: in vitro ADME; settings: 37° C.
Procedure: The mixture was incubated at 37° C. […] The stability was determined as outlined in Example 5.

[6] = Rate of release of a Construct from the IEDDA adduct in 50% mouse serum/PBS; format: in vitro ADME; settings: 37° C., 21 h
Procedure: 10 μL of a 25 mM TZ stock solution in DMSO (2.5×10^−7 mol TZ) was diluted with MeCN (50 μL), PBS (475 μL), and mouse serum (475 μL). Then, a stock solution of the appropriate TCO (20 μL 50 mM in DMSO; 1.0×10^−6 mol) was added, and the mixture was incubated at 37° C. At selected time points, aliquots (250 μL) were taken, diluted with cold MeCN (500 μL), stored at 4° C. for 30 min, and then centrifuged at 13400 rpm for 5 min. Part of the clear supernatant (250 μL) was diluted with water (500 μL) and the sample was analyzed by HPLC-PDA/MS.

[7] = physchem; settings: buffer
Procedure: as §1

[8] = Reactivity (k2) as Example 6 but assessed with sTCO 4.8; format: physicochemical; settings: assessed with sTCO 4.8 and not TCO 4.9; MeCN at 20° C.
Procedure: A cuvette was filled with 3 mL of a 3.33 mM TCO solution in MeCN (1.0×10^−5 mol TCO) and this solution was equilibrated at 20° C. […] From the decrease of this absorption, the half-life of the pseudo first order reaction between TZ and TCO was determined. The second order rate constant k2 was obtained by calculation from this half-life and the concentration of TCO

[9] = Rate of release of Constructs as Example 7 but after reaction with sTCO 4.8; format: physicochemical; settings: Method E: 5% MeCN in PBS at 37° C.
Procedure: […] After the complete disappearance of the pink color (this takes typically between 5 and 30 min, and is due to the IEDDA reaction between TZ and TCO thereby forming IEDDA adducts), the sample was diluted with PBS to a total volume of 1 mL (t=0). […] At selected time points, this solution was analyzed by HPLC-PDA/MS. The decrease of the IEDDA adduct absorption(s) and/or the rise of the leaving group absorption indicated the conversion of the release reaction. […] Alternatively, the rate of the release reaction can be indicated by the conversion (in %) after a certain reaction time (in hours).

[10] = tested on: LS174T colon carcinoma xenografts; assay: In vivo on-tumor reaction between ADC and TCO activators (tumor blocking, ^111In-TCO probe uptake); parameters: species or system mouse; settings: ADC (2 mg/kg), one hour later ^111In-TCO probe, 4 h after probe injection
Procedure: DOTA-PEG11-TCO probe 4.4 was labeled with indium-111 in 0.2 M ammonium acetate buffer (pH 6.0) for 10 min at 60° C. followed by a DTPA-challenge to complex any unreacted radiometal. The radiolabeling yield (>95%) and radiochemical purity (>95%) of the obtained ^111In-TCO probe was assessed by radio-ITLC and radio-RP-HPLC, respectively. The on-tumor reactivity between AVP0450-15.4 ADC and two different activators, sTCO—COOH (4.8) and sTCO-PEG11-OH (4.6) in two different doses (100 and 1000 eq with respect to ADC) was evaluated with an in vivo competition assay (tumor blocking), as previously described for a CC49-TCO-Dox conjugate and tetrazine-activators (R. Rossin et al., Bioconjug Chem 2016, 27, 1697-1706). Briefly, mice bearing subcutaneous LS174T colon carcinoma xenografts (n=4 per group) were administered the ADC (2 mg/kg) followed after 48 h by the activator and, one hour later, by the ^111In-TCO probe (1 eq with respect to ADC). The probe uptake in tumors was then compared with mice that received the ADC followed only by the ^111In-TCO probe (no blocking) and with mice that received the ^111In-TCO probe alone (complete blocking). All mice were euthanized 4 h after probe injection. Blood samples were obtained from heart puncture, tumors and other tissues of interest were dissected, blotted dry, weighed and counted in a gamma-counter.

[11] = Method C: 20% MeCN in PBS at 37° C., 16 h
[12] = Method A: 33% MeCN in PBS at 20° C., 16 h

## CC(OC(=O)NCc1ccccc1)c1nnc(C(C)OC(=O)NCc2ccccc2)nn1 (mixture of isomers) [Compound 2.5]
[1]; TZ with TCO in MeCN at 20° C.
  Reactivity k2: 1.5 M⁻¹ s⁻¹

## CC(OC(=O)N(C)Cc1ccccc1)c1nnc(C(C)OC(=O)N(C)Cc2ccccc2)nn1 (mixture of isomers) [Compound 2.36]
[2]; [11]
  Release % (conversion): 100% (16 h)

## CC(OC(=O)N(c1ccccc1)C(C)C)c1nnc(C(C)OC(=O)N(c2ccccc2)C(C)C)nn1 (mixture of isomers) [Compound 2.40]
[1]; TZ with TCO in MeCN at 20° C.
  Reactivity k2: 1.22 M⁻¹ s⁻¹
[2]; Method C: 20% MeCN in PBS at 37° C., 22 h
  Release % (conversion): 100% (22 h)

## Cc1cc(C)cc(NC(=O)OC(C)c2nnc(-c3ccccc3)nn2)c1 (racemic) [Compound 2.17]
[1]; TZ with TCO in MeCN at 20° C.
  Reactivity k2: 4.5 M⁻¹ s⁻¹

## CC(C)c1nnc(C(C)OC(=O)N(C)c2ccccc2)nn1 (racemic) [Compound 2.20]
[1]; TZ with TCO in MeCN at 20° C.
  Reactivity k2: 0.19 M⁻¹ s⁻¹
[2]; Method C: 20% MeCN in PBS at 37° C., 1.3 h
  Release % (conversion): 45%
[2]; [11]
  Release % (conversion): 100%

## CC(OC(=O)N(C)Cc1ccccc1)c1nnc(-c2ccccc2)nn1 (racemic) [Compound 2.21]
[1]; TZ with TCO in MeCN at 20° C.
  Reactivity k2: 2.54 M⁻¹ s⁻¹

## CC(OC(=O)N(C)c1ccccc1)c1nnc(-c2ccccc2)nn1 (racemic) [Compound 2.22]
[1]; TZ with TCO in MeCN at 20° C.
  Reactivity k2: 2.51 M⁻¹ s⁻¹

## O=C(NCc1ccccc1)OCc1nnc(COC(=O)NCc2ccccc2)nn1 [Compound 2.4]
[1]; TZ with TCO in MeCN at 20° C.
  Reactivity k2: 24 M⁻¹ s⁻¹

## CC(OC(=O)c1ccccc1)c1nnc(C(C)OC(=O)c2ccccc2)nn1 (centres unmarked) [Compound 2.7]
[2]; [12]
  Release % (conversion): 96% (16 h)
[3]
  half-life at 250 µM: 18 h

## CC(OC(=O)OCc1ccccc1)c1nnc(C(C)OC(=O)OCc2ccccc2)nn1 (centres unmarked) [Compound 2.8]
[2]; [12]
  Release % (conversion): 100% (16 h)
[3]
  half-life at 250 µM: 6.5 h

## O=C(OCc1nnc(-c2ccccc2)nn1)Oc1ccccc1 [Compound 2.18]
[4]
  Release % (conversion): 10% (23 h)
[3]
  half-life at 250 µM: < 4 h

## CC(C)c1nnc(COC(=O)N(C)Cc2ccccc2)nn1 [Compound 2.19]
[1]; TZ with TCO in MeCN at 20° C.
  Reactivity k2: 0.79 M⁻¹ s⁻¹
[5]
  Stability t1/2: 32 h
[6]; Dienophile 4.0, axial isomer
  Release % (conversion): 61% (21 h)

## CN(Cc1ccccc1)C(=O)OCc1nnc(CCN(C)C(=O)OC(C)(C)C)nn1 [Compound 2.24]
[1]; TZ with TCO in MeCN at 20° C.
  Reactivity k2: 4.6 M⁻¹ s⁻¹
[5]
  Stability t1/2: 16 h
[6]; Dienophile 4.0, axial isomer
  Release % (conversion): 51% (21 h)

## CC(C)c1nnc(C(C)OC(=O)N(Cc2ccccc2)C(C)C)nn1 (centres unmarked) [Compound 2.42]
[1]; TZ with TCO in MeCN at 20° C.
  Reactivity k2: 0.21 M⁻¹ s⁻¹
[2]; [11]
  Release % (conversion): 100% (16 h)
[5]; 50% mouse serum in PBS, read-out: Stability t1/2 (converted)
  half-life at 248 µM: 55 h
[6]; Dienophile 4.8, endo isomer
  Release % (conversion): 77% (21 h)
[3]
  half-life at 250 µM: 650 h

## CC(OC(=O)N(C)Cc1ccccc1)c1nnc(-c2ccc(NC(=O)OC(C)(C)C)cc2)nn1 (centres unmarked) [Compound 2.48]
[1]; TZ with TCO in MeCN at 20° C.
  Reactivity k2: 1.46 M⁻¹ s⁻¹
[3]
  half-life at 250 µM: > 4800 h

## CC(OC(=O)N(C)Cc1ccccc1)c1nnc(-c2ccc(N)cc2)nn1 (centres unmarked) [Compound 2.49]
[1]; TZ with TCO in MeCN at 20° C.
  Reactivity k2: 0.44 M⁻¹ s⁻¹
[3]
  half-life at 250 µM: > 4800 h

## O=C(Nc1ccccc1)OC/C=C/c1nnc(-c2ccccc2)nn1 [Compound 2.53]
[3]
  half-life at 250 µM: > 400 h

## CC(C)c1nnc(/C=C/COC(=O)Nc2ccccc2)nn1 [Compound 2.57]
[1]; TZ with TCO in MeCN at 20° C.
  Reactivity k2: 0.33 M⁻¹ s⁻¹
[7]
  half-life at 250 µM: > 400 h

## O=C(NCc1nnc(CNC(=O)Oc2ccccc2)nn1)Oc1ccccc1 [Compound 3.2]
[2]; Method B: 33% MeCN in PBS at 37° C., 19 h
  Release % (conversion): 25% (19 h)

## O=C(NC1CCCC1c1nnc(-c2ccccc2)nn1)Oc1ccccc1 (centres unmarked) [Compound 3.25]
[2]; Method G: 50% MeCN in PBS at 37° C., 16 h
  Release % (conversion): 57% (16 h)
[7]
  half-life: > 140 h

## O=C(Oc1ccccc1)N1CCCC1c1nnc(-c2ccccc2)nn1 (centres unmarked) [Compound 3.27]
[2]; Method C: 20% MeCN in PBS at 37° C., 24 h
  Release % (conversion): 49%
[2]; Method C: 20% MeCN in PBS at 37° C., 48 h
  Release % (conversion): 72%
[3]
  half-life at 250 µM: > 150 h

## CCN(Cc1nnc(-c2cccc(NC(=O)COCCOCCOCCOCCOCCOCCOCCOCCOCCOCCOC)c2)nn1)C(=O)Oc1ccc(COC(=O)Nc2ccc3c(C)cc(=O)oc3c2)cc1 [Compound 3.33]
[1]; TZ with TCO in MeCN at 20° C. (cyclization series)
  Reactivity k2: 4.7 M⁻¹ s⁻¹
[8]
  Reactivity k2: 520 ([5]) M^−1 s^−1
[2]; Method E: 5% MeCN in PBS at 37° C., 1 h
  Release % (conversion): 50%
[2]; Method E: 5% MeCN in PBS at 37° C., 4 h
  Release % (conversion): 80%
[2]; Method E: 5% MeCN in PBS at 37° C., 72 h
  Release % (conversion): 90%
[9]; 1 h
  Release % (conversion): 20%
[9]; 8 h
  Release % (conversion): 80%
[7]
  half-life: 200 h

## O=C(NCCOCCOCCOCCOCCOCCOCCOCCOCCOCCO)[C@@H]1[C@@H]2CC/C=C/CC[C@@H]21 [Compound 4.6]
[10]; after 48 h activator 100 eq
  ^111In-uptake in tumor: 0.15 ± 0.05 % ID/g
[10]; after 48 h activator 1000 eq
  ^111In-uptake in tumor: 0.14 ± 0.52 % ID/g

## O=C(O)[C@@H]1[C@@H]2CC/C=C/CC[C@@H]21 [Compound 4.8, (E-endo)-bicyclo[6.1.0]non-4-ene-9-carboxylic acid]
[10]; after 48 h activator 100 eq
  ^111In-uptake in tumor: 0.13 ± 0.03 % ID/g
[10]; after 48 h activator 1000 eq
  ^111In-uptake in tumor: 0.10 ± 0.03 % ID/g
